{
  "source": "patent US11192849B2",
  "about": "“Compounds, compositions, and methods for modulating ferroptosis and treating excitotoxic disorders” (THE TRUSTEES OF COLUMBIA UNIVERSITY IN THE CITY OF NEW YORK, priority 2013, dated 2021)",
  "key": {"[1]": {"assay": "2,2-Diphenyl-1-picrylhydrazyl (DPPH) cell-free antioxidant assay", "format": "biochemical", "conditions": "test compound 0.05 mM, 30 minutes", "experimental": "The stable radical DPPH (Blois, 1958) was dissolved in methanol to a final working concentration of 0.05 mM. This was prepared as follows. First, a 100× stock concentration (5 mM) was prepared by dissolving 3.9 mg DPPH in 2 mL methanol. Then, for 25 mL of 0.05 mM final working solution, 250 μL of the 5 mM solution was added to 24.75 mL of methanol. 1 mL of DPPH solution was added to a small volume (<5 μL) each test compound dissolved in DMSO. The final concentration of each test compound was 0.05 mM. Samples were inverted several times and allowed to incubate at room temperature for 30 minutes. Samples were then aliquoted to white 96-well solid-bottom dishes (Corning) and absorbance at 517 nm was recorded using a TECAN M200 plate reader. All values were normalized to background (methanol only). The experiment was repeated three times and the data was averaged.\nIn parallel with the above cell-based assay, a 2,2-diphenyl-1-picrylhydrazyl (DPPH) assay was used to examine the ability of each analog to scavenge free radicals in a cell-free in vitro solution—a test of intrinsic antioxidant capacity. […] Redox active analogs scavenged the DPPH radical by 60-90% within 30 minutes (FIG. 18a)."}, "[2]": {"test_system": "HT-1080 cells", "assay": "Inhibition of erastin (10 μM)-induced death in HT-1080 cells (Alamar Blue)", "format": "cell-based, human", "conditions": "for prevention of erastin-induced death: erastin-treated HT-1080 cells", "in_short": "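HT-1080 cells (1,000/well) were treated next day with 10 μM erastin plus a compound dilution series for 24 h. Alamar Blue (10% final) was then added for 6 h and fluorescence read at ex/em 530/590.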"}, "[3]": {"test_system": "Calu-1 cells", "assay": "Erastin-induced ferroptosis in Calu-1 cells, NOX pathway inhibitors", "format": "cell-based, human", "experimental": "(§1) Cell viability was typically assessed in 384-well format by Alamar Blue (Invitrogen) fluorescence (ex/em 530/590) measured on a Victor3 platereader (Perkin Elmer, Waltham, Mass.). In some experiments, Trypan Blue dye exclusion counting was performed using an automated cell counter (ViCell, Beckman-Coulter Inc., Brea, Calif.). Cell viability in test conditions is reported as a percentage relative to the negative control treatment."}, "[4]": {"target": "T1, system xc− (Homo sapiens, UniProt Q9UPY5)", "T1 construct": "endogenous in cells; host or cells: HT-1080 cells (ATCC)", "T1 sequence (Q9UPY5 1-501)": "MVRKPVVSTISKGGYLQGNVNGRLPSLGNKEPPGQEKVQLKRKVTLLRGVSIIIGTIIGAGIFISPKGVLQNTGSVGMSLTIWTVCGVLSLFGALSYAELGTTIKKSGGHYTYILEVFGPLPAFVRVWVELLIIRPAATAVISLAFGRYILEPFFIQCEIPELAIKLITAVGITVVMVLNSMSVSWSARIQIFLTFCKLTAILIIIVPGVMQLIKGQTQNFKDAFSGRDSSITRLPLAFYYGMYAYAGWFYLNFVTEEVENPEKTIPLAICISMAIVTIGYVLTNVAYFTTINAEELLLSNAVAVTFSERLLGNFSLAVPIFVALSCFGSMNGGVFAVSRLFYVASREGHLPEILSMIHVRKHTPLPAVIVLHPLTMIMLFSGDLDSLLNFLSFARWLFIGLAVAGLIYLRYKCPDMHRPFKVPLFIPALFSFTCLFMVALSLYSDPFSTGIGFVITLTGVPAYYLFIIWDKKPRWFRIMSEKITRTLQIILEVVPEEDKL", "T1 sequence (P08195 1-529 partner)": "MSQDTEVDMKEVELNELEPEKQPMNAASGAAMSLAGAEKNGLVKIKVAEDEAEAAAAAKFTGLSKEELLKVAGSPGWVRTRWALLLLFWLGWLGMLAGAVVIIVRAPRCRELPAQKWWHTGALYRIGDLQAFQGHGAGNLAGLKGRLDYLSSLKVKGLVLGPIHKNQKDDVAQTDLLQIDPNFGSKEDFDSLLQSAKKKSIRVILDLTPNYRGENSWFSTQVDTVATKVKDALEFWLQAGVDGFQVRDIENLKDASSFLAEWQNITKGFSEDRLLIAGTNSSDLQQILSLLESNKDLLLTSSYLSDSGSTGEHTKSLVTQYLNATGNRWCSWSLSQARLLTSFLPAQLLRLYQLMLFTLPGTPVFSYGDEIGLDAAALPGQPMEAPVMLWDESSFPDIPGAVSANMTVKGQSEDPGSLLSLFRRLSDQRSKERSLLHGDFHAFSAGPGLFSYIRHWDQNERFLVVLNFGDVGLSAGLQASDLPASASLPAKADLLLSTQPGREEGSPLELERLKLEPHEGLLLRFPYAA", "assay": "[14C]Cystine uptake assay in HT-1080 cells", "format": "cell-based", "conditions": "Erastin 10 μM, glutamate 50 mM, SAS 1 mM", "experimental": "200,000 HT-1080 cells/well were seeded overnight in 6-well dishes (Corning). […] At this point, in each well the buffer was replaced with 600 μL uptake buffer containing compound and 0.12 μCi (80-110 mCi/mmol) of L-[3,3′-^14C]-cystine (Perkin Elmer) and incubated for 3 minutes at 37° C. Cells were then washed three times with ice-cold uptake buffer and lysed in 500 μL 0.1 M NaOH. To this lysate was added 15 mL of scintillation fluid and radioactive counts per minute were obtained using a scintillation counter. All measurements were performed in triplicate for each condition."}, "[5]": {"test_system": "HT-1080 cells", "assay": "Mitochondrial ROS (MitoSOX) in HT-1080 cells", "format": "cell-based, human", "conditions": "HT-1080, 6 hours; erastin 10 μM, rotenone 250 nM", "procedure": "200,000 HT-1080 cells were seeded into 6-well dishes (Corning). The next day, cells were treated with +/−rotenone +/−ferrostatin-1 for 3 hours (for MitoSOX experiments) or +/−STS +/−ferrostatin-1 for 4 hours (for 10-N-nonylacridine orange [NAO] experiments), harvested by trypsinization and analyzed as follows. For the analysis of mitochondrial ROS, cells were incubated with 5 μM MitoSOX (Molecular Probes/Invitrogen) in HBSS for 10 minutes in the dark at 37° C. […] MitoSOX data were collected in the FL2 channel and NAO data was collected in the FL1 channel. Data are from three independent biological replicates of each experiment. Data were analyzed by one-way ANOVA with Bonferroni's post-hoc test.\nA minimum of 10,000 cells were analyzed per condition."}, "[6]": {"test_system": "mouse kidney proximal tubules", "assay": "Hydroxyquinoline + iron induced cell death in isolated mouse kidney proximal tubules (LDH release)", "format": "cell-based", "conditions": "10 μM hydroxyquinoline and ferrous ammonium sulfate, 60 min", "experimental": "Tubule preparation: 8-12 week old C57/BL6 female mice were euthanized with isoflurane. […] The cortices were then dissected and minced on an ice cold tile, then resuspended in additional Solution A for 8-10 min. of digestion at 37° C. followed by enrichment of proximal tubules using centrifugation on self-forming Percoll gradients as previously described for rabbit tubules.\nExperimental procedures for isolated tubules: Tubules were suspended at 1.5-2.0 mg tubule protein/ml in a 95% air/5% CO2-gassed medium containing (in mM) 110 NaCl, 2.6 KCl, 25 NaHCO3, 2.4 KH2PO4, 1.25 CaCl2, 1.2 MgCl2, 1.2 MgSO4, 5 glucose, 4 sodium lactate, 0.3 alanine, 5 sodium butyrate, 2 glycine, and 1.0 mg/ml bovine gelatin (75 bloom) (Solution B). After precincubation for 15 min. at 37° C., then were then resuspended in fresh Solution B containing 2 mM heptanoic acid instead of sodium butyrate along with experimental compounds.\nIn addition, the efficacy of Fer-1, SRS11-92, and selected analogs was tested in a model of iron-induced cell death in freshly isolated mouse kidney proximal tubules that simulates major elements of rhabdomyolysis-induced acute kidney injury (FIG. 15C). Cell death in this model is known to involve oxidative lipid damage (Sogabe, et al., 1996, Park, et al., 2011); it was therefore believed that Fer-1 might be protective. 10 μM each of hydroxyquinoline and ferrous ammonium sulfate (HQ+Fe) were used to induce cell death, which was quantified by monitoring LDH release after 60 min. […] By implication, cell death in these models may involve, at least in part, the induction of lipid peroxidation and perhaps ferroptosis."}, "[7]": {"test_system": "rat organotypic hippocampal slice culture (OHSC)", "assay": "Glutamate excitotoxic injury in organotypic hippocampal slice cultures (PI uptake)", "format": "cell-based", "conditions": "5 mM L-glutamate 3 hours; Fer-1 2 μM, CPX 5 μM, MK-801 10 μM; 24 hours", "experimental": "OHSCs were cultured as previously described (Morrison et al., 2002) with approval from Columbia University's Institutional Animal Care and Use Committee (IACUC). Briefly, Sprague Dawley rat pups (P8-P10) were rapidly decapitated, and the hippocampus placed in ice-cold Gey's balanced salt solution (Sigma). 400 μm thick sections were cut using a Mcllwain tissue chopper and immediately plated on Millicell cell culture inserts (Millipore, Billerica, Mass.) in Neurobasal (Invitrogen) media supplemented with B27 (1×, Invitrogen), GlutaMAX (1 mM, Invitrogen), and D-glucose (4.5 mg/mL, Sigma) at 37° C. and 5% CO2. After 2 days in vitro (DIV), the media was changed to medium containing serum comprised of 50% DMEM (Sigma), 25% heat-inactivated horse serum (Sigma), 25% Hank's balanced salt solution (Sigma), GlutaMAX (1 mM, Invitrogen), and D-glucose (4.5 mg/mL, Sigma). Medium was changed every 2-3 days.\nAfter 10-14 DIV, OBSCs were exposed to an excitotoxic injury consisting of a 3 hour exposure to 5 mM L-glutamate in SFM (Morrison et al., 2002). […] After the 3 hour exposure, the cultures were placed in fresh serum free media (SFM) containing 75% DMEM, 25% Hank's balanced salt solution, GlutaMAX (1 mM), D-glucose (4.5 mg/mL) until cell death was quantified at 24 hours. […]\nQuantification of cell death has been described previously (Cater et al., 2007; Morrison et al., 2002). […] Percentage cell death was expressed as the number of pixels in the ROI above a threshold in the PI fluorescent image divided by the total number of pixels in the ROI.\nOHSCs were treated with a lethal excitotoxic stimulus (5 mM L-glutamate, 3 hours) that mimics the consequences of stroke and neurodegenerative disease (Morrison et al., 2002; Sundstrom et al., 2005) (FIG. 5A). […] The effects of these compound treatments on propidium iodide (PI) uptake were analyzed, as an indicator of cell death, 24 hours following the end of glutamate treatment, in 3 defined regions of the OHSCs: the dentate gyrus (DG), the CA1 and the CA3 fields of the hippocampus."}, "[8]": {"test_system": "HT-1080 cells", "assay": "Acridine orange relocalization (lysosomal membrane permeabilization) in HT-1080 cells", "format": "cell-based, human", "conditions": "acridine orange re-localization", "experimental": "200,000 HT-1080 cells were seeded into 6-well dishes (Corning). The next day, cells were incubated with 25 ng/mL of AO for 15 minutes, then medium was removed and cells were incubated in growth medium for 15 minutes. […] Relocalization of AO from lysosomes (discrete red puncta) to the cytosol (diffuse green color) was determined using an EVOS fl digital inverted fluorescent microscope (Advanced Microscopy Group) equipped with GFP (ex/em 470/525) and RFP (ex/em 531/593) light cubes."}, "[9]": {"test_system": "143B osteosarcoma cells", "assay": "Erastin / RSL3 lethality in 143B ρ0 and ρ+ cells", "format": "cell-based, human", "conditions": "24 hours", "experimental": "as §1\nBecause two erastin targets, VDAC2 and VDAC3, reside in the mitochondria, it was hypothesized that erastin-induced death involved aberrant ROS production by the mitochondrial electron transport chain (ETC). […] Furthermore, KRAS-mutant 143B osteosarcoma cells incapable of ETC-dependent ROS formation, due to the depletion of mitochondrial DNA (mtDNA)-encoded transcripts (ρ^0 cells), were as sensitive to erastin and RSL3 as matched mtDNA-wild-type (ρ^+) cells (FIGS. 1E, 1F, and 8C-E). Thus, erastin-induced cell death in human cancer cells involves DFO-sensitive ROS accumulation and can occur in cells lacking a functional ETC. This iron-dependent death phenotype was named ferroptosis."}},
  "data": [
    {"smiles": "CCOC(=O)c1ccc(N)c(N)c1", "note": "[CA1]", "values": [
      {"measurement": "intrinsic antioxidant capability in the DPPH assay", "setting": "[1]", "result": "destroyed the antioxidant capability"},
      {"measurement": "EC50", "setting": "[2]; SI Table 8, read-out: EC50", "result": "> 10", "unit": "µM"},
      {"measurement": "prevention of erastin-induced death", "setting": "[2]", "result": "destroyed"}
    ]},
    {"smiles": "c1ccc2c(c1)[I+]c1ccccc1-2", "note": "[DPI, diphenylene iodonium]", "values": [
      {"measurement": "suppression of erastin-induced ferroptosis", "setting": "[3]", "result": "strongly suppressed"}
    ]},
    {"smiles": "N[C@@H](CCC(=O)O)C(=O)O", "note": "[glutamate]", "values": [
      {"measurement": "Na+-independent uptake of [14C]cystine", "setting": "[4]", "result": "abolished"}
    ]},
    {"smiles": "C=C(C)[C@H]1Cc2c(ccc3c2O[C@@H]2COc4cc(OC)c(OC)cc4[C@@H]2C3=O)O1", "note": "[rotenone, reference compound]", "values": [
      {"measurement": "MitoSOX-sensitive mitochondrial ROS production", "setting": "[5]", "result": "enhanced MitoSOX-sensitive ROS production"}
    ]},
    {"smiles": "CN(C)c1cccc(-c2c3c(=O)n(-c4ccccc4Cl)[nH]c3cc(=O)n2C)c1", "note": "[GKT137831, reference compound]", "values": [
      {"measurement": "suppression of erastin-induced ferroptosis", "setting": "[3]", "result": "strongly suppressed"},
      {"measurement": "HQ+Fe induced lethality (LDH release)", "setting": "[6]", "result": "protective"}
    ]},
    {"smiles": "Cc1cc(C2CCCCC2)n(O)c(=O)c1", "note": "[CPX, ciclopirox olamine, reference compound]", "values": [
      {"measurement": "glutamate-induced cell death (PI uptake) in DG, CA1, CA3", "setting": "[7]", "result": "attenuated significantly"},
      {"measurement": "prevention of erastin-induced death", "setting": "[2]", "result": "suppressed erastin-induced death"},
      {"measurement": "lysosomal membrane destruction in response to H2O2", "setting": "[8]", "result": "protects from lysosomal rupture"}
    ]},
    {"smiles": "C[C@]12N[C@H](Cc3ccccc31)c1ccccc12", "note": "[MK-801]", "values": [
      {"measurement": "glutamate-induced cell death (PI uptake) in DG, CA1, CA3", "setting": "[7]", "result": "attenuated significantly"}
    ]},
    {"smiles": "O=C(O)c1cc(/N=N/c2ccc(S(=O)(=O)Nc3ccccn3)cc2)ccc1O", "note": "[SAS, sulfasalazine]", "values": [
      {"measurement": "Na+-independent uptake of [14C]cystine", "setting": "[4]", "result": "abolished"}
    ]},
    {"smiles": "COC(=O)c1ccc([C@@H]2c3[nH]c4ccccc4c3C[C@@H](C(=O)OC)N2C(=O)CCl)cc1", "note": "[RSL3]", "values": [
      {"measurement": "Na+-independent uptake of [14C]cystine", "setting": "[4]", "result": "had no effect on this process"},
      {"measurement": "sensitivity of ρ0 versus ρ+ cells", "setting": "[9]", "result": "as sensitive"}
    ]}
  ]
}
